These results are taken from publication PMC10072198, “A covalent inhibitor targeting the papain-like protease from SARS-CoV-2 inhibits viral replication” (RSC Advances, 2023).

Data set [1] deals with T1, PLpro (Severe acute respiratory syndrome coronavirus 2, UniProt P0DTD1). As to the kind of experiment: PLpro activity assay in the presence of DTT and GSH. Type of data set: biochemical, SARS-CoV-2. To be noted: 5 mM glutathione or 5 mM DTT. As to the method:
(§1) subsequently added to the enzyme solution. The mixed solutions were incubated at room temperature for 20 min. 50 µL of Mpro protease substrate solution was added to each well, followed by 30 min incubation at 37 °C. The Mpro activity was detected by measuring the fluorescence emission intensity λ excitation=490 nm; λ emission=520nm.
(§2) Compound concentration µM
(§3) Fluorescence based PLpro activity assay in the presence of […] (DTT) and […]
(§4) PLpro inhibition assays were performed in the presence of 5 mM DTT and GSH to determine if […]
(§5) PLpro protease activity was measured with peptide substrate x-x-G-G-AMC (Bachem) in the presence or absence of 5 mM DTT and GSH.
(§6) PLpro was added into a black, flat-bottom 96-well plate at a final concentration of 50 nM with reaction buffer [150 mM NaCl, 20 mM HEPES, 0.1mg/mL BSA, pH 7.5] with or without 5 mM DTT […]
(§7) 0-80 µM for 20 min at room temperature. The enzyme activity assay was initiated by mixing the x-x-G-G-AMC probe at a final 50 µM and incubating for another 20 min at room temperature. The reaction was ended by adding 1 µL of aqueous citric acid. The PLpro activity was detected by measuring the fluorescence emission intensity λ excitation=360 nm; λ emission=460nm.

For data set [2], the target named is SARS-CoV-2 Mpro(3CL) (Severe acute respiratory syndrome coronavirus 2, UniProt P0DTD1). The data set is described as follows: Fluorescence based Mpro(3CL) activity assay. Type of data set: biochemical. As to the method:
Fluorescence based Mpro(3CL) activity assays
The ability of compounds 1, 19 and 20 to inhibit Mpro was determined using SensoLyte® 520 SARS-CoV-2 3CL Protease Activity Assay Kit (Anaspec), following the manufacturer’s instructions. Briefly, 40 µL diluted Mpro enzyme solution was added to a flat-bottom 96-well plate.
10 µL of varying concentrations of test compounds or GC 376 solution (an Mpro inhibitor) was (1 picture or pasted object on this page, not shown here) […]
as §1, §2, §3, §4, §5, §6, §7

Data set [3] deals with T1, PLpro. The data set is described as follows: PLpro irreversibility test (pre-incubation then dilution). It counts as biochemical, SARS-CoV-2. An excerpt:
All error bars represent the standard error of the mean for n = 3 replicates.

The test system of data set [4] is SARS-CoV-2 (US/WA1/2020 isolate). The data set is described as follows: SARS-CoV-2 infection of cells (dsRNA staining, RT-qPCR of viral RNA). Type of data set: cell-based. To be noted: for inhibition of SARS-CoV-2 replication in cells (in words): Calu-3 and/or Vero E6 cells.
Data set [5] concerns the target PLpro from SARS-CoV-2 (Severe acute respiratory syndrome coronavirus 2, UniProt P0DTD1). The data set is described as follows: Fluorescence based PLpro activity assay (R-L-R-G-G-AMC substrate). Type of data set: biochemical. To be noted: read-out: IC50 (PLpro inhibition).
The nature of data set [6]: in vitro. The note with it: human.
Data set [7] is described as follows: Determination of GSH t1/2 values. To be noted: buffer, pH 7.4.
The test system of data set [8] is SARS-CoV PLpro. The note with it: cited from earlier work.
The subject of data set [9] is SARS-CoV2. To be noted: mouse, in vivo, po; cited from earlier work.

Structures are written as SMILES. pIC50: −log10 of the molar value. “Also recorded” adds a separate entry of the source. A value given as a limit tells only on which side of the number the result lay.

In the case of `O=C(CCl)Nc1ccc2c(c1)NC(=O)CO2` [Compound 1], the “PLpro inhibition in the presence of thiols (in words)” value in data set [1] is recorded as “able to inhibit PLpro”. Moreover, the “inhibition of Mpro (in words)” value in [2] was “did not inhibit; also recorded: no interaction”. Also, in data set [3] (500 nM, without pre-incubation at 50 μM), the “PLpro inhibition without pre-incubation” value was “no inhibition”. For the same molecule, the “PLpro inhibition after pre-incubation and dilution” value in data set [3] (pre-incubated at 50 μM for 1 hour, then diluted to 500 nM) was “complete inhibition”. In data set [4], the “inhibition of SARS-CoV-2 replication in cells (in words)” value (from here on “inhibition of SARS-CoV-2 replication”) is given as “blocked SARS-CoV-2 replication in both cell lines; also recorded: inhibited viral replication in both cell lines”. Moreover, the pIC50 (in general, the IC50 on a negative log10 scale, so that one unit is a factor of ten) in data set [4] (Severe acute respiratory syndrome coronavirus 2, Calu-3 and Vero E6 cells, 72 hours, read-out: IC50 for inhibiting viral replication) was greater than 4.70; in data set [5] it was 4.74.
For the molecule `O=C(CCl)Nc1ncc([N+](=O)[O-])s1` [Compound 2], the pIC50 in data set [5] was 4.89.
In turn, `Cn1ncc(C(=O)CCl)n1` [Compound 3] yielded a CC50 in data set [6] of 62.5 µM. The “inhibition of SARS-CoV-2 replication” value in data set [4] is recorded as “not effective in cells”. Also, the pIC50 in data set [5] was 6.52.
In data set [6], `O=C(NCCc1ccc(F)cc1)n1ccnc1` [Compound 4] had a CC50 greater than 500 µM. Moreover, the half-life (usually the time needed for the level to fall by half in the phase considered) at 0.05 mM in data set [7] turned out to be 13.4 min. The pIC50 in data set [5] was 5.60.
In [6], `O=S(=O)(F)c1cncc(Cl)n1` [Compound 5] showed a CC50 greater than 500 µM. In [5], the negative logarithm of the IC50 (pIC50) was 5.77.
On to `C=CS(=O)(=O)c1nc2ccccc2s1` [Compound 6], for which the pIC50 in [5] is 6.00.
In the case of `O=C1COc2cc([N+](=O)[O-])c(NC(=O)CCl)cc2N1` [Compound 19], in data set [2], the “inhibition of Mpro (in words)” value is “no interaction”. The “inhibition of SARS-CoV-2 replication” value in data set [4] was “no inhibitory activity against SARS-CoV-2; also recorded: did not inhibit viral replication”. Also, the pIC50 in [5] was 5.30.
On to `O=C(CCl)Nc1cc2c(cc1Br)CCC(=O)N2` [Compound 20], for which the “inhibition of Mpro (in words)” value in data set [2] is recorded as “no interaction”. For the same molecule, the “inhibition of SARS-CoV-2 replication” value in data set [4] is “no inhibitory activity against SARS-CoV-2; also recorded: did not inhibit viral replication”. The negative logarithm of the IC50 (pIC50) in data set [5] is 5.22.
As to `Cc1ccc(N)cc1C(=O)N[C@H](C)c1cccc2ccccc12` [GRL-0617], the negative-log IC50 (pIC50) in [8] was […]. In addition, in [9], the “antiviral activity against SARS-CoV2 in mice” value is “moderate antiviral activity”.
